The test system of this experiment is HCV pseudoparticles (genotype 1a HCV E1 and E2 envelope, H77C isolate). Description: microbe, parasite or virus in culture. In kind it is cell-based. The following applies: Hepatitis C virus.
Where [1] appears, read: Huh-7, read-out: Activity (EC50 class), HCV pseudoparticles (genotype 1a, H77C) in Huh7 cells, EC50 expressed as class A/B.
Setting [2] is: Huh-7, 48 h, read-out: Activity (EC50 class), HCV pseudoparticle infection of Huh7 cells, luciferase 2 days after infection, EC50 expressed as class A/B.
[3] abbreviates: Huh-7, 48 h, read-out: Activity (EC50 class), HCV pseudoparticles, Huh7 cells, luciferase 2 days after infection, average of duplicates.

Like-named read-outs stand apart in the source and are kept apart here.

Our source for the EC50 values is patent publication US8916702B2 (priority 2012, dated 2014).

What is called EC50 is the concentration giving half of the maximal effect.

With `CC(C)(CNC(=O)C(=O)Nc1cccnc1)CNC(=O)c1ccc(Nc2nc(NC3(c4ccc(Cl)cc4)CC3)nc(OCC(F)(F)F)n2)cc1` [Compound 3245], the EC50 under setting [1] was in the range of 0.01 to 10 nM.

Regarding `COC(=O)[C@@H](CCNC(=O)C(=O)Nc1ccc(-c2noc(C)n2)cc1)NC(=O)c1ccc(Nc2nc(NC3(c4ccc(Cl)cc4)CC3)nc(OCC(F)(F)F)n2)cc1` [Compound 1529], the EC50 under setting [2] was in the range of 0.01 to 10 nM.

On to `COC(=O)[C@H](CNC(=O)C(=O)Nc1ccc(-n2cnnn2)cc1)NC(=O)c1ccc(Nc2nc(NC3(c4ccc(Cl)cc4)CC3)nc(OCC(F)(F)F)n2)cc1` [Compound 3191], for which the EC50 runs as follows: (Huh-7, 48 h, HCV pseudoparticles (genotype 1a, H77C) in Huh7 cells, average of duplicate, luciferase 2 days after infection) 0.82 nM; under setting [1], 0.01 to 10 nM.

As for `COC(=O)[C@H](CNC(=O)C(=O)N[C@H]1C[C@H](C)CC[C@H]1C(C)C)NC(=O)c1ccc(Nc2nc(NC3(c4ccc(Cl)cc4)CC3)nc(OCC(F)(F)F)n2)cc1` [Compound 1067], the EC50 under setting [2] lay within 0.01 to 10 nM.

`Cc1nnnn1-c1ccc(NC(=O)C(=O)NCC[C@H](NC(=O)c2ccc(Nc3nc(NC4(c5ccc(Cl)cc5)CC4)nc(OCC(F)(F)F)n3)cc2)C(=O)O)cc1` [Compound 3236]: the EC50 under setting [1] fell in the range of 0.01 to 10 nM.

As to `CC(C)(CNC(=O)C(=O)Nc1ccccc1-n1cccn1)CNC(=O)c1ccc(Nc2nc(NC3(c4ccc(Cl)cc4)CC3)nc(OCC(F)(F)F)n2)cc1` [Compound 3015], under setting [1], the EC50 was in the range of 0.01 to 10 nM.

Turning to `CC(C)(CNC(=O)c1ccc(Nc2nc(NC3(c4ccc(Cl)cc4)CC3)nc(OCC(F)(F)F)n2)cc1)NC(=O)C(=O)Nc1cc(F)cc(F)c1` [Compound 3424], under setting [1], the EC50 lay within 0.01 to 10 nM.

With `COC(=O)[C@H](CCNC(=O)C(=O)NC1CCC(S(C)(=O)=O)CC1)NC(=O)c1ccc(Nc2nc(NC3(c4ccc(Cl)cc4)CC3)nc(OCC(F)(F)F)n2)cc1` (stereo partly shown) [Compound 3119], the EC50 under setting [1] is 0.01 to 10 nM.

As for `COC(=O)[C@@H](CCNC(=O)C(=O)Nc1cccc(C(=O)Nc2ccccc2)c1)NC(=O)c1ccc(Nc2nc(NC3(c4ccc(Cl)cc4)CC3)nc(OCC(F)(F)F)n2)cc1` [Compound 3575], the EC50 under setting [1] was in the range of 0.01 to 10 nM.

As for `COC(=O)[C@H](CNC(=O)C(=O)Nc1ccc(Oc2ccncc2)cc1)NC(=O)c1ccc(Nc2nc(NC3(c4ccc(Cl)cc4)CC3)nc(OCC(F)(F)F)n2)cc1` [Compound 3206], the EC50 under setting [1] fell in the range of 0.01 to 10 nM.

Turning to `COC(=O)[C@H](CNC(=O)C(=O)Nc1cccc(C)c1)NC(=O)c1ccc(Nc2nc(NC3(c4ccc(Cl)cc4)CC3)nc(OCC(F)(F)F)n2)cc1` [Compound 3687], the EC50 under setting [3] is 0.01 to 10 nM.

Turning to `CCOc1ccc(NC(=O)C(=O)NCC(C)(C)CNC(=O)c2ccc(Nc3nc(NC4(c5ccc(Cl)cc5)CC4)nc(OCC(F)(F)F)n3)cc2)cc1` [Compound 3062], the EC50 under setting [1] is 0.01 to 10 nM.

As for `NC(=O)C(=O)N[C@H](CCNC(=O)c1ccc(Nc2nc(NC3(c4ccc(Cl)cc4)CC3)nc(OCC(F)(F)F)n2)cc1)C(=O)O` [Compound 3491], under setting [1], the EC50 is 10 to 1000 nM.

For the molecule `CC(CNC(=O)C(=O)NC1CCCCC1)CNC(=O)c1ccc(Nc2nc(NC3(c4ccc(Cl)cc4)CC3)nc(OCC(F)(F)F)n2)cc1` (stereo not shown) [Compound 3472], under setting [1], the EC50 lay within 0.01 to 10 nM.

As to `CCc1cccc(NC(=O)C(=O)NCC(C)(C)CNC(=O)c2ccc(Nc3nc(NC4(c5ccc(Cl)cc5)CC4)nc(OCC(F)(F)F)n3)cc2)c1` [Compound 1591], the EC50 under setting [2] was in the range of 0.01 to 10 nM.

Regarding `COC(=O)[C@H](CCNC(=O)C(=O)Nc1ccc(-n2cncn2)cc1)NC(=O)c1ccc(Nc2nc(NC3(c4ccc(Cl)cc4)CC3)nc(OCC(F)(F)F)n2)cc1` [Compound 3130], under setting [1], the EC50 is 0.01 to 10 nM.

Consider `CN1CCN(CC2(CNC(=O)C(=O)NCC[C@H](NC(=O)c3ccc(Nc4nc(NC5(c6ccc(Cl)cc6)CC5)nc(OCC(F)(F)F)n4)cc3)C(=O)O)CC2)CC1` [Compound 1432], for which, under setting [2], the EC50 is 0.01 to 10 nM.

Consider `C[C@H]1[C@H]2C[C@@H](C[C@H]1NC(=O)C(=O)NCC[C@H](NC(=O)c1ccc(Nc3nc(NC4(c5ccc(Cl)cc5)CC4)nc(OCC(F)(F)F)n3)cc1)C(=O)O)C2(C)C` [Compound 1130], for which the EC50 is 0.12 nM (Huh-7, 48 h, HCV pseudoparticle infection of Huh7 cells, luciferase 2 days after infection, average of duplicates) and 0.01 to 10 nM under setting [2].

With `COC(=O)[C@@H](CCNC(=O)C(=O)Nc1cccc(C(=O)c2ccccc2)c1)NC(=O)c1ccc(Nc2nc(NC3(c4ccc(Cl)cc4)CC3)nc(OCC(F)(F)F)n2)cc1` [Compound 3576], the EC50 under setting [1] was in the range of 0.01 to 10 nM.

In the case of `O=C(Nc1cccc(F)c1)C(=O)N1CCCC(CNC(=O)c2ccc(Nc3nc(NC4(c5ccc(Cl)cc5)CC4)nc(OCC(F)(F)F)n3)cc2)C1` (stereo not shown) [Compound 3479], the EC50 under setting [1] fell in the range of 0.01 to 10 nM.

In the case of `N#Cc1ccc(NC(=O)C(=O)NC/C(=N/C(=O)c2ccc(Nc3nc(NC4(c5ccc(Cl)cc5)CC4)nc(OCC(F)(F)F)n3)cc2)C(=O)O)cc1` [Compound 3167], the half-maximal effective concentration (EC50) under setting [1] is 0.01 to 10 nM.

Consider `COC(=O)[C@H](CCNC(=O)C(=O)Nc1ccccc1OC)NC(=O)c1ccc(Nc2nc(NC3(c4ccc(Cl)cc4)CC3)nc(OCC(F)(F)F)n2)cc1` [Compound 1234], for which, under setting [2], the EC50 was in the range of 0.01 to 10 nM.

For the molecule `O=C(NC/C(=N/C(=O)c1ccc(Nc2nc(NC3(c4ccc(Cl)cc4)CC3)nc(OCC(F)(F)F)n2)cc1)C(=O)O)C(=O)Nc1ccc(C(=O)N2CCOCC2)cc1` [Compound 3166], the EC50 under setting [1] is 0.01 to 10 nM.

As for `Cc1ccc(NC(=O)C(=O)NCC(C)(C)CNC(=O)c2ccc(Nc3nc(NC4(c5ccc(Cl)cc5)CC4)nc(OCC(F)(F)F)n3)cc2F)c(Cl)c1` [Compound 3664], a half-maximal response (Huh-7, 48 h, HCV pseudoparticles, Huh7 cells, luciferase 2 days after infection, average of duplicates) (EC50) required 0.038 nM and the EC50 under setting [3] lay within 0.01 to 10 nM.

Regarding `COC(=O)[C@H](CCNC(=O)C(=O)Nc1ccn(C)n1)NC(=O)c1ccc(Nc2nc(NC3(c4ccc(Cl)cc4)CC3)nc(OCC(F)(F)F)n2)cc1` [Compound 1221], under setting [2], the EC50 fell in the range of 0.01 to 10 nM.

For `CC(C)CNC(=O)C(=O)N(CCO)CCCNC(=O)c1ccc(Nc2nc(NC3(c4ccc(Cl)cc4)CC3)nc(OCC(F)(F)F)n2)cc1` [Compound 3505], the EC50 under setting [1] was 0.01 to 10 nM.

Take `CCOCC1(CNC(=O)C(=O)NCC[C@H](NC(=O)c2ccc(Nc3nc(NC4(c5ccc(Cl)cc5)CC4)nc(OCC(F)(F)F)n3)cc2)C(=O)O)CC1` [Compound 1422]: under setting [2], the EC50 lay in the range of 0.01 to 10 nM.

Consider `COc1ncccc1NC(=O)C(=O)NC[C@H](NC(=O)c1ccc(Nc2nc(NC3(c4ccc(Cl)cc4)CC3)nc(OCC(F)(F)F)n2)cc1)C(=O)O` [Compound 1347], for which the EC50 under setting [2] is 0.01 to 10 nM.

Regarding `COc1ccc(CCNC(=O)C(=O)NC[C@H](NC(=O)c2ccc(Nc3nc(NC4(c5ccc(Cl)cc5)CC4)nc(OCC(F)(F)F)n3)cc2)C(=O)O)cc1` [Compound 1399], the EC50 under setting [2] was in the range of 0.01 to 10 nM.

As for `COC(=O)[C@H](CNC(=O)C(=O)Nc1cccc(-c2c[nH]cn2)c1)NC(=O)c1ccc(Nc2nc(NC3(c4ccc(Cl)cc4)CC3)nc(OCC(F)(F)F)n2)cc1` [Compound 3732], the EC50 under setting [3] was in the range of 0.01 to 10 nM.

For the molecule `COC(=O)[C@H](CCNC(=O)C(=O)Nc1cccc(C#CC(C)(C)Cl)c1)NC(=O)c1ccc(Nc2nc(NC3(c4ccc(Cl)cc4)CC3)nc(OCC(F)(F)F)n2)cc1` [Compound 3600], under setting [3], the EC50 fell in the range of 0.01 to 10 nM.

In the case of `O=C(NCC[C@H](NC(=O)c1ccc(Nc2nc(NC3(c4ccc(Cl)cc4)CC3)nc(OCC(F)(F)F)n2)cc1)C(=O)O)C(=O)Nc1cc(F)ccc1F` [Compound 1513], the EC50 under setting [2] was 0.01 to 10 nM.

Turning to `COC(=O)[C@@H](CCNC(=O)C(=O)Nc1ccccc1Cl)NC(=O)c1ccc(Nc2nc(NC3(c4ccc(Cl)cc4)CC3)nc(OCC(F)(F)F)n2)cc1` [Compound 1535], under setting [2], the EC50 is 0.01 to 10 nM.

For the molecule `COC(=O)[C@H](CNC(=O)C(=O)Nc1ccc(-n2cnc(Cl)c2Cl)cc1)NC(=O)c1ccc(Nc2nc(NC3(c4ccc(Cl)cc4)CC3)nc(OCC(F)(F)F)n2)cc1` [Compound 3095], the EC50 under setting [1] was 0.01 to 10 nM.
